In this test the target is Early growth response protein 1 (Homo sapiens) (UniProt P18146). Nature of the test: lowering of EGR1 protein in HCT116 – cell-based, HCT116 colorectal carcinoma, chemiluminescent western blot, counter-screen for KLF5 inhibitor project, late-stage follow-up (AID 588644). The following applies: HCT116 EGR1 protein level, 24 h, at 10 µM, stronger effect = higher value. For orientation: Immunoblotting shows a protein as a band on a membrane.

Each structure is given as a SMILES string. Calls of active or inactive are those of the source.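 The calls were made as follows: active = rise or fall in EGR1 growth-response protein of at least 30% versus solvent-only treated cells; inactive = EGR1 protein change under 30% either way.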

Our source for the inhibition values is PubChem BioAssay AID588644 (The Scripps Research Institute Molecular Screening Center, 2011).

As to `CN(C(=O)CNC(=O)/C=C/c1cccc(Cl)c1)C1CCS(=O)(=O)C1` (stereo not drawn), the inhibition is 18.6% (inactive).

As for `CN(C(=O)COC(=O)/C=C/c1cccc([N+](=O)[O-])c1)C1CCS(=O)(=O)C1` (stereo not drawn), the inhibition is 28.4% (inactive).

In the case of `CN(C(=O)CNC(=O)/C=C/c1cccc(Cl)c1)C1CCS(=O)(=O)CC1`, the inhibition is -3.53% (inactive).

In general, inhibition refers to the change of the read-out against control, counted positive when it falls.
